From patent US20220127258A1, “AROMATIC RING OR HETEROAROMATIC RING COMPOUNDS, PREPARATION METHOD THEREFOR AND MEDICAL USE THEREOF” (The National Institutes of Pharmaceutical R&D Co., Ltd., priority 2019, published 2022)

Molecular target: T1, FXR (Homo sapiens, UniProt Q96RI1)
T1 sequence (Q96RI1 262-486 limits assumed): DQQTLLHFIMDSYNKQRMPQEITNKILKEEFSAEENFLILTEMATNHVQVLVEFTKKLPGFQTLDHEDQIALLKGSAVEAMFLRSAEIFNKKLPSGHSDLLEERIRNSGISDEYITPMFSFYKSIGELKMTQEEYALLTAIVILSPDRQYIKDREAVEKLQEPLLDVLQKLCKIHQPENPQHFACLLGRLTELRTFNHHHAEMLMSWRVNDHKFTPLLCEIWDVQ
Assay: FXR agonistic activity, luciferase assay
Assay type: cell-based
Conditions: luc2P-GAL4-HEK293 cells transfected with pBIND-FXR, 24 hours
Description: The FXR agonistic activity of the compound of the present invention was evaluated using the luciferase assay.
The experimental process comprises the follows. The luc2P-GAL4-HEK293 stably transfected cell line (the cell line was established by transfecting pGL4.35 plasmid with HEK293 cells which was then subjected to Hygromycin B screening. The cell contained 9×GAL4 UAS and firefly luciferase reporter gene. The ligand-activated LBD-GAL4 DBD fusion protein can enter the nucleus to bind to 9×GAL4 UAS and activate the transcription of the downstream luciferase reporter gene) was transferred to a 96-well plate with […] per well. pBIND-FXR (Which was constructed by inserting FXR-LBD into pFN26A-BIND hRluc-neo Flexi® vector. The plasmid was 7.5 kb in size, Amp resistant, contained FXR-LBD, and can express FXR-LBD and GAL4 DBD fusion proteins) was transfected using X-tremeGENE HP transfection reagent. The ratio of plasmid to transfection reagent was 1 μg: 2 μl. The specific amount was 100 ng of plasmid and 0.2 μl of X-tremeGENE HP transfection reagent per well. The test compounds (the highest concentration of each compound was 30 μM, 3-fold dilution, a total of 10 concentrations) were added to induce the expression of luciferase. After 24 hours, the 96-well plate containing the test cells was taken out from the incubator, and placed at room temperature. Dual-Glo® Luciferase Reagent with the volume equal to the volume of the medium in the well (80 μl/well) was added to each well and mixed well. The plate was incubated at room temperature for 20 minutes to allow the cells to be fully lysed. All the liquid in the plate was transferred to a 96-well microtiter plate, and the firefly luciferin value was measured with a multi-function plate reader (manufacturer: Bio Tek (USA); model: Synergy4). Dual-Glo® a Stop & Glo® Reagent with the volume equal to the volume of the initial medium (80 μl/well) was added to each well and mixed well. The plate was incubated at room temperature for 10 minutes, and the renilla luciferin value was measured. The measurement order of renilla fluorescence should be the same as that of firefly fluorescence. Curve fitting and EC50 calculation were conducted using GraphPad Prism 5 software by nonlinear regression method. The fitting equation is: Y=Bottom+(Top−Bottom)/(1+10^((Log EC50−X)*HillSlope)), wherein EC50 refers to the semi-effective concentration, Top refers to the maximum effect, Bottom refers to the blank effect, and HillSlope refers to the slope.

Compound	EC50 [µM]
O=C(O)c1ccc(-c2nnc(N3[C@@H]4CC[C@H]3C[C@@H](OCc3c(-c5ccccc5OC(F)(F)F)noc3C3CC3)C4)o2)s1 [Example 25]	0.1 to 0.5
O=C(O)c1cccc(-c2nnc(N3[C@@H]4CC[C@H]3C[C@@H](OCc3c(-c5c(Cl)cccc5Cl)noc3C3CC3)C4)o2)c1 [Example 15]	< 0.025
O=C(O)c1cc(-c2nnc(N3[C@@H]4CC[C@H]3C[C@@H](OCc3c(-c5c(Cl)cccc5Cl)noc3C3CC3)C4)o2)cs1 [Example 21]	0.1 to 0.5
O=C(O)c1ccc(-c2nnc(N3[C@@H]4CC[C@H]3C[C@@H](OCc3c(-c5ccccc5OC(F)(F)F)noc3C3CC3)C4)o2)cc1Cl [Example 23, 2-chloro-4-(5-((1R,3r,5S)-3-((5-cyclopropyl-3-(2-(trifluoromethoxy)phenyl)isoxazol-4-yl)methoxy)-8-azabicyclo[3.2.1]octan-8-yl)-1,3,4-oxadiazol-2-yl)benzoic acid]	0.1 to 0.5
O=C(O)c1ccc(-c2nnc(N3[C@@H]4CC[C@H]3C[C@@H](OCc3c(-c5ccccc5OC(F)(F)F)noc3C3CC3)C4)o2)cn1 [Example 31, 5-(5-((1R,3r,5S)-3-((5-cyclopropyl-3-(2-(trifluoromethoxy)phenyl)isoxazol-4-yl)methoxy)-8-azabicyclo[3.2.1]octan-8-yl)-1,3,4-oxadiazol-2-yl)pyridine-carboxylic acid]	0.1 to 0.5
O=C(O)c1ccc(-c2nnc(N3[C@@H]4CC[C@H]3C[C@@H](OCc3c(-c5ccccc5OC(F)(F)F)noc3C3CC3)C4)o2)nc1 [Example 32]	> 0.5
Cc1cc(C(=O)O)ccc1-c1nnc(N2[C@@H]3CC[C@H]2C[C@@H](OCc2c(-c4ccccc4OC(F)(F)F)noc2C2CC2)C3)o1 [Example 27]	< 0.025
COc1cc(-c2nnc(N3[C@@H]4CC[C@H]3C[C@@H](OCc3c(-c5c(Cl)cccc5Cl)noc3C3CC3)C4)o2)ccc1C(=O)O [Example 13]	< 0.025
O=C(O)c1ccc(-c2nnc(N3[C@@H]4CC[C@H]3C[C@@H](OCc3c(-c5c(Cl)cccc5Cl)noc3C3CC3)C4)o2)cn1 [Example 18, 5-(5-((1R,3r,5S)-3-((5-cyclopropyl-3-(2,6-dichlorophenyl)isoxazol-4-yl)methoxy)-8-azabicyclo[3.2.1]octan-8-yl)-1,3,4-oxadiazol-2-yl)pyridine-carboxylic acid]	0.1 to 0.5
O=C(O)c1ccc(-c2noc(N3[C@@H]4CC[C@H]3C[C@@H](OCc3c(-c5c(Cl)cccc5Cl)noc3C3CC3)C4)n2)s1 [Example 4]	< 0.025
O=C(O)c1ccc(-c2nnc(N3[C@@H]4CC[C@H]3C[C@@H](OCc3c(-c5c(Cl)cccc5Cl)noc3C3CC3)C4)o2)nc1 [Example 19, 6-(5-((1R,3r,5S)-3-((5-cyclopropyl-3-(2,6-dichlorophenyl)isoxazol-4-yl)methoxy)-8-azabicyclo[3.2.1]octan-8-yl)-1,3,4-oxadiazol-2-yl)nicotinic acid]	> 0.5
Cc1cc(C(=O)O)ccc1-c1noc(N2[C@@H]3CC[C@H]2C[C@@H](OCc2c(-c4c(Cl)cccc4Cl)noc2C2CC2)C3)n1 [Example 5]	< 0.025
O=C(O)c1cccc(-c2noc(N3[C@@H]4CC[C@H]3C[C@@H](OCc3c(-c5c(Cl)cccc5Cl)noc3C3CC3)C4)n2)n1 [Example 3]	< 0.025
Cc1cc(-c2nnc(N3[C@@H]4CC[C@H]3C[C@@H](OCc3c(-c5ccccc5OC(F)(F)F)noc3C3CC3)C4)o2)ccc1C(=O)O [Example 30]	< 0.025
O=C(O)c1ccc(-c2nnc(N3[C@@H]4CC[C@H]3C[C@@H](OCc3c(-c5c(Cl)cccc5Cl)noc3C3CC3)C4)o2)c(F)c1 [Example 16, 4-(5-((1R,3r,5S)-(3-((5-cyclopropyl-3-(2,6-dichlorophenyl)isoxazol-4-yl))methoxy)-8-azabicyclo[3.2.1]octan-8-yl)-1,3,4-oxadiazol-2-yl)-3-fluorobenzoic acid]	0.05 to 0.1
O=C(O)c1cccc(-c2nnc(N3[C@@H]4CC[C@H]3C[C@@H](OCc3c(-c5c(Cl)cccc5Cl)noc3C3CC3)C4)o2)n1 [Example 10, 6-(5-((1R,3r,5S)-3-((5-cyclopropyl-3-(2,6-dichlorophenyl)isoxazol-4-yl)methoxy)-8-azabicyclo[3.2.1]octan-8-yl)-1,3,4-oxadiazol-2-yl)pyridine-2-carboxylic acid]	0.1 to 0.5
Cc1cc(-c2noc(N3[C@@H]4CC[C@H]3C[C@@H](OCc3c(-c5c(Cl)cccc5Cl)noc3C3CC3)C4)n2)ccc1C(=O)O [Example 7]	< 0.025
O=C(O)c1csc(-c2nnc(N3[C@@H]4CC[C@H]3C[C@@H](OCc3c(-c5ccccc5OC(F)(F)F)noc3C3CC3)C4)o2)c1 [Example 33, 5-(5-((1R,3r,5S)-3-((5-cyclopropyl-3-(2-(trifluoromethoxy)phenyl)isoxazol-4-yl)methoxy)-8-azabicyclo[3.2.1]octan-8-yl)-1,3,4-oxadiazol-2-yl)thiophene-3-carboxylic acid]	0.1 to 0.5
O=C(O)c1cccc(-c2noc(N3[C@@H]4CC[C@H]3C[C@@H](OCc3c(-c5c(Cl)cccc5Cl)noc3C3CC3)C4)n2)c1 [Example 6]	< 0.025
O=C(O)c1ccc(-c2noc(N3[C@@H]4CC[C@H]3C[C@@H](OCc3c(-c5c(Cl)cccc5Cl)noc3C3CC3)C4)n2)cc1Cl [Example 2, 2-chloro-4-(5-((1R,3r,5S)-3-((5-cyclopropyl-3-(2,6-dichlorophenyl)isoxazol-4-yl)methoxy)-8-azabicyclo[3.2.1]octan-8-yl)-1,2,4-oxadiazol-3-yl)benzoic acid]	< 0.025
Cc1cc(-c2nnc(N3[C@@H]4CC[C@H]3C[C@@H](OCc3c(-c5c(Cl)cccc5Cl)noc3C3CC3)C4)o2)ccc1C(=O)O [Example 17]	< 0.025
O=C(O)c1cccc(-c2nnc(N3[C@@H]4CC[C@H]3C[C@@H](OCc3c(-c5ccccc5OC(F)(F)F)noc3C3CC3)C4)o2)n1 [Example 24, 6-(5-((1R,3r,5S)-3-((5-cyclopropyl-3-(2-(trifluoromethoxy)phenyl)isoxazol-4-yl)methoxy)-8-azabicyclo[3.2.1]octan-8-yl)-1,3,4-oxadiazol-2-yl)pyridine-2-carboxylic acid]	> 0.5
O=C(O)c1cc(-c2nnc(N3[C@@H]4CC[C@H]3C[C@@H](OCc3c(-c5ccccc5OC(F)(F)F)noc3C3CC3)C4)o2)cs1 [Example 34]	> 0.5
O=C(O)c1ccc(-c2noc(N3[C@@H]4CC[C@H]3C[C@@H](OCc3c(-c5c(Cl)cccc5Cl)noc3C3CC3)C4)n2)cc1 [Example 1, 4-(5-((1R,3r,5S)-3-((5-cyclopropyl-3-(2,6-dichlorophenyl)-isoxazol-4-yl)methoxy)-8-azabicyclo[3.2.1]octan-8-yl)-1,2,4-oxadiazol-3-yl)benzoic acid]	< 0.025
